The structures appear in SMILES notation. Where only a bound is given, the exact number is not on record here.

The target in this test is T1, FLuc-C-HiBiT (Photinus pyralis, UniProt P08659).
T1 construct: firefly luciferase with C-terminal HiBiT tag, E. coli expressed
Nature of the test: biochemical. Particulars: enzyme activity, 10 uM ATP; read-out: IC50 or SDR50 (mM) / FLuc E.

T1 sequence (P08659 whole entry, looked up): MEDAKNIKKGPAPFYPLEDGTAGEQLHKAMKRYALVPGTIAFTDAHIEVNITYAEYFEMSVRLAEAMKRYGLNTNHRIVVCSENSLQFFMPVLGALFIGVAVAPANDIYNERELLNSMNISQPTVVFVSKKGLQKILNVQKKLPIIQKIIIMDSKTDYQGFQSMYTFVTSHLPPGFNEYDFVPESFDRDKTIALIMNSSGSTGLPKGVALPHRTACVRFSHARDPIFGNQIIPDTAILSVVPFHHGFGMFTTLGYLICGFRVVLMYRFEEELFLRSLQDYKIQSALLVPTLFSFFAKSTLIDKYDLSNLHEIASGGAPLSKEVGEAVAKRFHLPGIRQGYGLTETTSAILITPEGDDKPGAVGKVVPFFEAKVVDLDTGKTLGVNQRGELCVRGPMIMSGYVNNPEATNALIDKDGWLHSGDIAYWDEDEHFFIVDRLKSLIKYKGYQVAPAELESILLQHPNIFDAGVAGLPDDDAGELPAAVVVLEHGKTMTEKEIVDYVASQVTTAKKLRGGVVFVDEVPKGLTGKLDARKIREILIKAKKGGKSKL

With `CCOc1ncccc1C(=O)OCC(=O)Nc1ccc(-c2nc3ccc(C)cc3s2)cc1` [MLS000418033-02], the IC50 amounted to 16 µM.

With `CC(C)(C)c1ccc(C(=O)Nc2ccc(C(O)[C@H]3COCC(=O)N3Cc3ccccc3)cc2)cc1` (stereo partly shown) [NCGC00394950-01], the IC50 is more than 30 µM.

For `CCOc1ccc2nc(N3CCN(C(=O)c4ccco4)CC3)sc2c1` [NCGC00137033-01], the IC50 was 12.4 µM.

Take `COc1cccc(CNc2nc3ccccc3c3nc(-c4cccc(C)c4)nn23)c1` [NCGC00112594-01]: the IC50 amounted to 7.85 µM.

Consider `COc1cccc(-c2csc(CN3CCCC(C)(NC(C)=O)C3)c2)c1` (stereo not shown) [NCGC00410342-01], for which the IC50 is 20.2 µM.

Regarding `CC(=O)Nc1ccc(NC(=O)c2cc(-c3ccc4c(c3)OCCO4)on2)cc1` [NCGC00118853-01], the IC50 was found to be 0.624 µM.

As for `O=C(COc1ccccc1[N+](=O)[O-])Nc1cccc(-c2nc3ccccc3s2)c1` [NCGC00119155-01], the IC50 was more than 30 µM.

Take `COc1ccc(-c2nc3ccccc3s2)cc1NC(=O)c1ccccc1OC` [NCGC00102097-01]: the IC50 came out at 11.1 µM.

Consider `CC1CCc2nc3ncn(Cc4ccc(Cl)cc4)c(=O)c3cc2C1` (stereo not shown) [NCGC00132725-01], for which the IC50 was more than 30 µM.

In the case of `COCCN1CCOc2nc(-c3cc(F)cc(OC)c3)ncc2C1=O` [NCGC00413569-01], the IC50 is 11.4 µM.

For `COc1ccc(-n2nc(C)c([C@@H]3C=C[C@@H](NC(=O)Nc4cccc(C#N)c4)C3)c2C)cc1` [NCGC00400336-01], the IC50 worked out at 18 µM.

`Cc1ccc(NC(=O)Nc2ccc(C)n(CC(=O)NC3CCCC3)c2=O)cc1` [NCGC00430792-01]: the IC50 turned out to be 0.7 µM.

Turning to `CCc1noc(-c2nc(-c3ccccc3F)no2)n1` [NCGC00450040-01], the IC50 came to 15.7 µM.

On to `Cc1ccc(NC(=O)c2ccc3c(c2)N(C)C2CCCN2C3=O)cc1F` (stereo not shown) [NCGC00452116-01], for which the IC50 came to 8.81 µM.

For `Cc1ccc2nc(C(=O)N3CCCC3c3cc(C(C)C)on3)cn2c1` (stereo not shown) [NCGC00437737-01], the IC50 worked out at 15.7 µM.

As to `COc1ccccc1CN1CCc2nc(C(=O)Nc3ccccc3)oc2CC1` [NCGC00413298-01], the IC50 amounted to 16.1 µM.

As for `COc1ccccc1OC(C)C(=O)Nc1ccc(-c2nc3ccccc3s2)cc1` (stereo not shown) [NCGC00119131-01], the IC50 was more than 30 µM.

Take `Cc1ccc(-n2ncc3c(N4CCCCC4)ncnc32)cc1` [NCGC00139024-01]: the IC50 stood at 0.197 µM.

In the case of `COc1cc(OC)cc(C(=O)Nc2ccccc2-c2nc3ccccc3s2)c1` [NCGC00098479-01], the IC50 is more than 30 µM.

Consider `CN1c2cc(C(=O)Nc3ccc4c(c3)OCCO4)ccc2C(=O)N2CCCC21` (stereo not shown) [NCGC00452151-01], for which the IC50 was 7.85 µM.

On to `CCOc1ccccc1C(=O)Nc1nc2c(s1)CC(C)CC2` (stereo not shown) [NCGC00119172-01], for which the IC50 is 4.42 µM.

For `CN(C)c1cccc(C(=O)Nc2ccc3c(N4CCOCC4)ncnc3c2)c1` [NCGC00425557-01], the IC50 was 9.89 µM.

As for `O=C(O)c1ccc(-c2ccc(N3CCCCCC3)nc2)cc1` [NCGC00432679-01], the IC50 turned out to be 2.48 µM.

With `CCCCNc1nc(N)c2[nH]c(=O)n(Cc3ccc(OCCN(C)C)nc3)c2n1` [NCGC00387452-01], the IC50 was more than 30 µM.

In the case of `COc1ccc(-c2nc3ccccc3s2)cc1NC(=O)c1cc2ccccc2o1` [NCGC00102103-01], the IC50 was more than 30 µM.

Take `O=C(Nc1ccccc1-c1nc2ccccc2s1)c1ccc(F)cc1` [NCGC00102555-01]: the IC50 is more than 30 µM.

On to `CNC(=O)c1cccc(-c2cnc(NC(=O)Cc3ccccc3)c3c2CCO3)c1` [NCGC00412711-01], for which the IC50 was 3.21 µM.

Turning to `COc1ccc(-c2cc3c(cn2)CN(C)CCN3)cn1` [NCGC00411253-01], the IC50 is 22.6 µM.

Consider `O=C1c2cnc(-c3cccc(C(F)(F)F)c3)nc2OCCN1CC1CC1` [NCGC00413514-01], for which the IC50 is 9.04 µM.

Regarding `Cc1nn(-c2ccc(C(C)C)cc2)c(C)c1[C@@H]1C=C[C@@H](NC(=O)Nc2ccccc2)C1` [NCGC00421405-01], the IC50 came out at 18 µM.

With `COc1ccc(NC(=O)Nc2ccc(C)n(CC(=O)N3CCCC(C)C3)c2=O)cc1` (stereo not shown) [NCGC00430838-01], the IC50 was found to be 7.85 µM.

In the case of `CC(=O)N1CCNc2cc(-c3cccc(F)c3)ncc2C1` [NCGC00411252-01], the IC50 was found to be 25.4 µM.

For the compound `O=C1c2cnc(-c3ccc(Cl)cc3)nc2OCCN1CC1CC1` [NCGC00413489-01], the IC50 was 4.04 µM.

Regarding `Brc1ccc(-c2nc(-c3ccccn3)no2)o1` [NCGC00079657-01], the IC50 stood at 1.24 µM.

For `Cc1cccc(NC(=O)Nc2ccc(F)cc2)n1` [NCGC00106833-01], the IC50 worked out at 12.4 µM.

`CNC(=O)c1cccc(-c2cnc(Nc3ccc(Cl)cn3)c3c2CCO3)c1` [NCGC00412786-01]: the IC50 came out at 10.1 µM.

For the compound `c1ccc(-c2noc(-c3ccc4ccccc4c3)n2)cc1` [NCGC00045018-01], the IC50 was found to be 0.7 µM.

With `CN(C(=O)OC(C)(C)C)c1ccc(-c2nc3ccccc3s2)cc1` [NCGC00167619-02], the IC50 was found to be 0.0989 µM.

Take `CN1c2cc(C(=O)Nc3ccccc3)ccc2C(=O)N2CCCCC21` (stereo not shown) [NCGC00452396-01]: the IC50 is 12.4 µM.

As for `CCOc1ccc(C(=O)Nc2onc3c2CCCC3)cc1` [NCGC00115912-01], the IC50 came out at 1.97 µM.

Turning to `CCc1cccc(-n2nnc(-c3nsc(NC(=O)c4cccs4)n3)c2C)c1` [NCGC00129048-01], the IC50 was more than 30 µM.

In the case of `Cc1ccc2oc(=O)c(-c3nc(-c4cccs4)no3)cc2c1` [NCGC00123382-01], the IC50 is more than 30 µM.

With `CCOc1cccc2cc(-c3nc4ccc(C(=O)O)cc4[nH]3)c(=O)oc12` [NCGC00138160-01], the IC50 turned out to be 0.157 µM.

Turning to `COc1ccc(NC(=O)N[C@@H]2C=C[C@@H](c3c(C)nn(-c4ccc(C(C)C)cc4)c3C)C2)cc1` [NCGC00421407-01], the IC50 was more than 30 µM.

As for `O=C1c2cnc(-c3cccc(CO)c3)nc2OCCN1c1ccccc1` [NCGC00413559-01], the IC50 worked out at 11.4 µM.

`O=C(Nc1cnc(-c2ccccc2)nc1)C1CCCC1` [NCGC00432867-01]: the IC50 came out at 2.48 µM.

As for `O=C1NCCCCCCN(Cc2ccncc2)[C@@H]2CN(C(=O)Nc3ccc4c(c3)OCCO4)CC[C@H]12` [NCGC00467232-01], the IC50 amounted to 11.1 µM.

Regarding `O=C([C@@H]1C[C@@H](O)[C@H](O)[C@@H]2NC(=S)N(c3ccc4c(c3)OCO4)[C@@H]21)N1CCOCC1` [NCGC00397934-01], the IC50 is 14.3 µM.

On to `CCN(CC1CCOCC1)C(=O)c1cccnc1SC/C=C/c1ccccc1` [NCGC00433298-01], for which the IC50 turned out to be 12.4 µM.

Regarding `COc1ccc2nc(-c3cccc(C(C)=O)c3)sc2c1` [NCGC00167608-01], the IC50 was 1.24 µM.

In the case of `C[C@@H]1C(=O)O[C@H]2[C@H]1CC[C@@]1(C)Cc3sc(NCCc4ccccn4)nc3[C@@H](C)[C@H]21` [NCGC00391315-01], the IC50 worked out at 16.1 µM.

For the compound `O=C(Nc1ccc2c(c1)OCO2)c1cccc2c1CCN2C(=O)Nc1ccc(F)cc1` [NCGC00430184-01], the IC50 is 0.197 µM.

`O=C(O)c1ccc(-c2noc(-c3ccccc3Cl)n2)cc1` [NCGC00168099-01]: the IC50 came out at 1.11 µM.

For the compound `CCC(=O)N1CCc2ccc(C(=O)NC3CCCCC3)cc21` [NCGC00430262-01], the IC50 was determined as 11.1 µM.

As for `COc1ccc(CNC(=O)C[C@@H]2C[C@@H](C(C)C)[C@H](CNC(=O)c3cccnc3)C=C2C)cc1` [NCGC00394780-01], the IC50 was more than 30 µM.

For `COc1ccc2cc(C3CN(C(=O)Cc4ccc(O)cc4)CCO3)ccc2c1` (stereo not shown) [NCGC00430869-01], the IC50 is 9.89 µM.

On to `Cc1ccc(NC(=O)c2oc3ccc4c(c3c2C)C(=O)CC(C)(C)O4)c(C)c1` [NCGC00122260-01], for which the IC50 worked out at 9.89 µM.

For the compound `CC(C)(CC(=O)O)CC(=O)N1Cc2nc[nH]c2C[C@H]1c1nc(Cc2ccccc2)no1` [NCGC00396501-01], the IC50 was more than 30 µM.

Consider `CC(C)n1cnnc1CC1CCN(C(=O)Nc2ccc3c(c2)OCCO3)CC1` [NCGC00456228-01], for which the IC50 worked out at 9.89 µM.

Regarding `O=c1oc2ccc(F)cc2cc1-c1nc(-c2cccs2)no1` [NCGC00123380-01], the IC50 stood at 3.13 µM.

In the case of `Cc1oc(C(O)c2ccccc2F)nc1C(=O)Nc1ccc(N2CCOCC2)cc1` (stereo not shown) [NCGC00417991-01], the IC50 was determined as 16.1 µM.

For the compound `CN(C)C(=O)c1ccc(-c2cccc(-c3ccn(CC4CC4)n3)c2)o1` [NCGC00426335-01], the IC50 came to 7.85 µM.

Turning to `CNC(=O)c1cccc(-c2cnc(NC(=O)c3cn(C)cn3)c3c2CCO3)c1` [NCGC00412729-01], the IC50 turned out to be 20.2 µM.

Regarding `O=C(Nc1ccc2c(c1)OCCO2)N1CCC2(CC1)CC(N1CCCC1)CCO2` (stereo not shown) [NCGC00453772-01], the IC50 turned out to be 11.1 µM.

With `COc1ccc(NC(=O)N2CCc3c(C(=O)Nc4ccc5c(c4)OCO5)cccc32)cc1` [NCGC00430172-01], the IC50 is 0.881 µM.

`CN(Cc1ccccc1)C(=O)[C@H]1C[C@@H](O)[C@H](O)[C@@H]2N=C(Nc3ccc(-n4cccn4)cc3)S[C@@H]21` [NCGC00401585-01]: the IC50 is 11.1 µM.

Regarding `COc1ccc(NC(=O)c2cc3ccccc3o2)c(OC)c1` [NCGC00141077-01], the IC50 was found to be 4.95 µM.

In the case of `O=C(O)c1cccc(-c2noc(-c3cccc(C(F)(F)F)c3)n2)c1` [NCGC00168769-01], the IC50 is 0.0157 µM.

For `Cc1nnn2c(C(=O)NC3CC3)cccc12` [NCGC00477171-01], the IC50 amounted to 25.4 µM.

Turning to `CSc1ccc(NC(=O)c2ccc3c(c2)N(C)C2CCCN2C3=O)cc1` (stereo not shown) [NCGC00452166-01], the IC50 turned out to be 12.4 µM.

For the compound `C[C@@H]1C(=O)O[C@H]2[C@H]1CC[C@@]1(C)Cc3sc(NC(=O)c4ccncc4)nc3[C@@H](C)[C@H]21` [NCGC00401418-01], the IC50 was found to be 0.57 µM.

On to `Cc1cccc(NC(=O)c2cc(-c3ccc4c(c3)OCCO4)on2)c1` [NCGC00118828-01], for which the IC50 worked out at 0.442 µM.

As for `Fc1ccc(Cc2cn3cc(-c4ccc(Cl)cc4)nc3s2)cc1` [NCGC00102108-01], the IC50 was 3.51 µM.

As for `Cc1csc(NC(=O)c2ccc3c(c2)OCC(=O)N(C)C3)n1` [NCGC00418513-01], the IC50 was 18 µM.

Turning to `CC(=O)N1CCNc2cc(Nc3cccc(N(C)C)c3)ncc2C1` [NCGC00411238-01], the IC50 was found to be 16.1 µM.

Take `Oc1ccccc1CN1CCNc2cc(Nc3ccccc3)ncc2C1` [NCGC00411199-02]: the IC50 is 12.4 µM.

The values are drawn from article PMC12064818, “A general assay platform to study protein pharmacology using ligand-dependent structural dynamics” (Nature Communications, 2025).
